The source of these data is patent US8168800B2, “Aβ-binding small molecules” (The Regents of the University of California, priority 2007, dated 2012).

Bounds are passed on as bounds.

One series relates to AβO cytotoxicity. Briefly: Rapid MTT formazan exocytosis (MTT-FE) assay. The note with it: AβO:Compound 1:0 to 1:4, 1 hour, TS-/TI-MTT. It counts as cell-based.
Procedure: In the rapid MTT formazan exocytosis (MTT-FE) assay, AβO was combined with LRL 03, LRL 15, Compound A or Congo Red (2.5 μM solution) at a ratio of 1:0, 1:1, 1:2 or 1:4 (AβO:Compound) and incubated for 1 hour, followed by measurement of the degree of formazan exocytosis. […] In particular, cellular MTT formazan was fractionated into the Triton soluble (TS) and insoluble (TI) MTT and quantified and shown in FIG. 7B.
Take `Nc1c(/N=N/c2ccc(-c3ccc(/N=N/c4cc(S(=O)(=O)O)c5ccccc5c4N)cc3)cc2)cc(S(=O)(=O)O)c2ccccc12` [Congo Red]: the “neutralization of AβO cytotoxicity” value is listed as “able to neutralize AβO cytotoxicity”.

The subject of a further series is binding of AβO to synapses of cultured mouse hippocampal neurons. Briefly: Synaptic binding assay. The series is classed as cell-based. The note with it: 100 nM AβO: 1 μM compound, neurons 21 days in vitro. As for the experimental part:
The strong binding of AβO to synapses induces aberration in synapse composition, shape, and density, and was proposed as the molecular basis for the loss of connectivity in AD (see, Lacor, et al., J. Neurosci. (2007) 27:796-807). A synaptic binding assay was performed as described by Lacor et al. (2007), which is incorporated herein by reference, with minor modifications to test the effectiveness of a compound of Formula I (e.g., Compound A) to reduce or to prevent the binding of AβO to synapses. AβO prepared from the N-terminal biotinylated Aβ1-42 peptide was incubated either with 10 equivalents compounds (i.e., 100 nM AβO: 1 μM Compound A), or with DMSO (i.e., the solvent for the compounds used only as a negative control) for five minutes, then added to cultured mouse hippocampal neurons that had been cultured 21 days in vitro. After 5 minute incubation, the neurons were washed, fixed, and stained with streptavidin-Alexa594 for bound AβO. […] The density of puncta per unit dendritic area was quantified using the Image J program and the resulting bar graph is presented in the far right panel.
For `Nc1c(/N=N/c2ccc(-c3ccc(/N=N/c4cc(S(=O)(=O)O)c5ccccc5c4N)cc3)cc2)cc(S(=O)(=O)O)c2ccccc12` [Congo Red], the “fluorescent puncta (AβO bound to synapses)” value is listed as “substantially reduced number of puncta”.

For a further series, the target named is T1, AβO (Homo sapiens, UniProt P05067).
T1 construct: prepared by mixing a 1:10 ratio of biotinylated and unbiotinylated Aβ1-42 peptide
T1 sequence (P05067 672-713 limits assumed): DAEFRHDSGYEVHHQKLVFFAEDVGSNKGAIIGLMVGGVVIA
Nature of the series: Electron microscopy (EM) of AβO size. The series is classed as biochemical. The note with it: 24 hour incubation at 25° C. As for the experimental part:
To address the possible alternative explanation that the depolymerization effect observed for Compound A in the AFM experiment is due to Compound A altered binding of AβO to the AFM mica, the effect of Compound A and Compound B and Congo Red on AβO size was further analyzed by electron microscopy (EM) (see FIG. 5A and FIG. 5B). […] The representative electron micrographs presented in FIG. 5A show the size of the AβO aggregates after incubation with either Compound A, Compound B or Congo Red. FIG. 5B contains a histogram, which illustrates the size distribution of AβO without treatment or with treatment with Compound A, Compound B or Congo Red. It is apparent from EM images in FIG. 5A and in the histograms shown in FIG. 5B that after 24 hour incubation at 25° C. and in the absence of treatment with Compound A or Congo Red, AβO grew in size.
`Nc1c(/N=N/c2ccc(-c3ccc(/N=N/c4cc(S(=O)(=O)O)c5ccccc5c4N)cc3)cc2)cc(S(=O)(=O)O)c2ccccc12` [Congo Red]: the “effect on number and size of AβO” value is “reduction in the number and size of AβO”.

For the next series, the system named is SDS-stable AβO in MC65 cells. Briefly: SDS-PAGE and Western blot (6E10) of MC65 cell homogenates. The note with it: 1 μM, 24 hour cultures, 6E10 Western blot. The series is classed as cell-based. The source says:
See, Maezawa et al. J Neurochem (2006) 98:57-67, which is incorporated herein by reference.
For orientation: Immunoblotting shows a protein as a band on a membrane.
In the case of `NC(=O)c1ccc2c(c1)nc(Nc1ccc(I)cc1)n2CCOc1ccccc1` [LRL 19, 2-(4-iodophenylamino)-1-(2-phenoxyethyl)-1H-benzo[d]imidazole-5-carboxamide, reference compound], the “levels of SDS-stable AβO” value was “decreased the levels of SDS-stable AβO”.

With `NC(=O)[C@H](Cc1ccc(O)c(O)c1)NC(=O)c1ccc2c(c1)nc(Nc1cccc(Br)c1)n2CCOc1ccccc1` [LRL 13, (S)—N-(1-amino-3-(3,4-dihydroxyphenyl)-1-oxopropan-2-yl)-2-(3-bromophenylamino)-1-(2-phenoxyethyl)-1H-benzo[d]imidazole-5-carboxamide, reference compound], the “levels of SDS-stable AβO” value is “decreased the levels of SDS-stable AβO”.

The subject of the next series is MC65 cells. Nature of the series: MC65 cell protection (cell viability) assay.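 Also: intraneuronal AβO toxicity triggered by withdrawing tetracycline, which suppresses the C99 transgene, MTT formazan viability read-out, with tetracycline-maintained cultures taken as 100%.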
Details: not given
Regarding `Cc1c(C(N)=O)c(=O)oc2cc3c(cc12)nc(Nc1ccccc1Br)n3CCOc1ccccc1` [Compound C, 2-(2-Bromo-phenylamino)-8-methyl-6-oxo-3-(2-phenoxy-ethyl)-3,6-dihydro-chromeno[6,7-d]imidazole-7-carboxylic acid amide], the “protection of MC65 cells from death” value was “inactive”.

`NC(=O)c1ccc2c(c1)nc(Nc1ccc(I)cc1)n2CCOc1ccccc1` [LRL 19, 2-(4-iodophenylamino)-1-(2-phenoxyethyl)-1H-benzo[d]imidazole-5-carboxamide, reference compound]: the “protection of MC65 cells from death” value is reported as “protect MC65 cells from death”.

With `NC(=O)[C@H](Cc1ccc(O)c(O)c1)NC(=O)c1ccc2c(c1)nc(Nc1cccc(Br)c1)n2CCOc1ccccc1` [LRL 13, (S)—N-(1-amino-3-(3,4-dihydroxyphenyl)-1-oxopropan-2-yl)-2-(3-bromophenylamino)-1-(2-phenoxyethyl)-1H-benzo[d]imidazole-5-carboxamide, reference compound], the “protection of MC65 cells from death” value is given as “protect MC65 cells from death”.

The same series, now with this note: MC65.
In general, EC50 refers to the concentration needed to bring the measured effect to its halfway point. Read a low EC50 as a more potent agent. With `COc1ccc(Nc2nc3cc4c(C)c(C(N)=O)c(=O)oc4cc3n2Cc2cccc(F)c2)cc1` [D.21], the EC50 was below 1 µM.

For the compound `CSc1cccc(Nc2nc3cc4c(C)c(C(N)=O)c(=O)oc4cc3n2Cc2cccc(I)c2)c1` [D.18], the EC50 was below 1 µM.

`Cc1c(C(N)=O)c(=O)oc2cc3c(cc12)nc(Nc1cccc(I)c1)n3Cc1cccc(I)c1` [D.15] displayed an EC50 below 1 µM.

In turn, `COCCn1c(Nc2cccc(I)c2)nc2cc3c(C)c(C(N)=O)c(=O)oc3cc21` [D.6] displayed an EC50 above 10 µM.

`CCCn1c(Nc2cccc(I)c2)nc2cc3c(C)c(C(N)=O)c(=O)oc3cc21` [D.12] showed an EC50 below 1 µM.

`COc1ccc(Nc2nc3cc4c(C)c(C(N)=O)c(=O)oc4cc3n2Cc2cccc(Cl)c2)cc1` [D.22] came in with an EC50 below 1 µM.

With `COc1ccc(Nc2nc3cc4c(C)c(C(N)=O)c(=O)oc4cc3n2CCc2cccc(Cl)c2)cc1` [D.27], the EC50 was below 1 µM.

As to `Cc1c(C(N)=O)c(=O)oc2cc3c(cc12)nc(Nc1ccc(C#N)cc1)n3Cc1ccc(I)cc1` [D.35], the EC50 is below 1 µM.

Take `Cc1c(C(N)=O)c(=O)oc2cc3c(cc12)nc(Nc1ccc(C#N)cc1)n3Cc1ccc(Br)cc1` [D.34]: the EC50 is below 1 µM.

`Cc1c(C(N)=O)c(=O)oc2cc3c(cc12)nc(Nc1ccc(OC(F)(F)F)cc1)n3Cc1ccc(Cl)cc1` [D.31] gave an EC50 below 1 µM.

For the compound `COc1ccc(Nc2nc3cc4c(C)c(C(N)=O)c(=O)oc4cc3n2Cc2ccc(Br)cc2)cc1` [D.24], the EC50 was below 1 µM.

For the compound `COc1ccc(Nc2nc3cc4c(C)c(C(N)=O)c(=O)oc4cc3n2CCc2ccc(Br)cc2)cc1` [D.26], the EC50 is below 1 µM.

As to `Cc1c(C(N)=O)c(=O)oc2cc3c(cc12)nc(Nc1cccc(I)c1)n3CC(F)F` [D.14], the EC50 lay within 1 to 10 µM.

On to `Cc1c(C(N)=O)c(=O)oc2cc3c(cc12)nc(Nc1ccccc1Br)n3CCOc1ccccc1` [D.3], for which the EC50 was above 10 µM.

Compound `Cc1c(C(N)=O)c(=O)oc2cc3c(cc12)nc(Nc1cccc(I)c1)n3C` [D.11] had an EC50 of 1 to 10 µM.

Compound `C#CCn1c(Nc2cccc(I)c2)nc2cc3c(C)c(C(N)=O)c(=O)oc3cc21` [D.4] gave an EC50 of 1 to 10 µM.

In turn, `Cc1c(C(N)=O)c(=O)oc2cc3c(cc12)nc(Nc1cccc(Br)c1)n3CCOc1ccccc1` [D.1] came in with an EC50 below 1 µM.

Compound `COc1ccc(Nc2nc3cc4c(C)c(C(N)=O)c(=O)oc4cc3n2-c2cccc(Br)c2)cc1` [D.33] came in with an EC50 above 10 µM.

In the case of `Cc1c(C(N)=O)c(=O)oc2cc3c(cc12)nc(Nc1cccc(I)c1)n3CCOc1ccccc1` [D.9], the EC50 is below 1 µM.

Compound `Cc1c(C(N)=O)c(=O)oc2cc3c(cc12)nc(Nc1cccc(I)c1)n3CC1CC1` [D.13] returned an EC50 below 1 µM.

As for `COc1ccc(Nc2nc3cc4c(C)c(C(N)=O)c(=O)oc4cc3n2Cc2ccc(I)cc2)cc1` [D.25], the EC50 is below 1 µM.

Consider `Cc1c(C(N)=O)c(=O)oc2cc3c(cc12)nc(Nc1ccc(OC(F)(F)F)cc1)n3Cc1cccc(Br)c1` [D.29], for which the EC50 is below 1 µM.

The compound `COc1ccc(Nc2nc3cc4c(C)c(C(N)=O)c(=O)oc4cc3n2Cc2cccc(I)c2)cc1` [D.16] yielded an EC50 below 1 µM.

Regarding `COc1cccc(Nc2nc3cc4c(C)c(C(N)=O)c(=O)oc4cc3n2Cc2cccc(I)c2)c1` [D.17], the EC50 was below 1 µM.

`Cc1c(C(N)=O)c(=O)oc2cc3c(cc12)nc(Nc1ccc(OC(F)(F)F)cc1)n3Cc1ccc(Br)cc1` [D.32] came in with a half-maximal effective concentration (EC50) below 1 µM.

`COc1ccc(Nc2nc3cc4c(C)c(C(N)=O)c(=O)oc4cc3n2Cc2cccc(I)c2)c(OC)c1` [D.19]: the EC50 is below 1 µM.

As for `COc1ccc(Nc2nc3cc4c(C)c(C(N)=O)c(=O)oc4cc3n2Cc2ccc(Cl)cc2)cc1` [D.23], the EC50 was below 1 µM.

As for `Cc1c(C(N)=O)c(=O)oc2cc3c(cc12)nc(Nc1ccc(OC(F)(F)F)cc1)n3Cc1cccc(Cl)c1` [D.28], the EC50 is below 1 µM.

On to `COc1ccc(Nc2nc3cc4c(C)c(C(N)=O)c(=O)oc4cc3n2Cc2cccc(Br)c2)cc1` [D.20], for which the EC50 was below 1 µM.

In turn, `COc1ccc(Nc2nc3cc4c(C)c(C(N)=O)c(=O)oc4cc3n2CCOc2ccccc2)cc1` [D.10] displayed an EC50 below 1 µM.

`Cc1c(C(N)=O)c(=O)oc2cc3c(cc12)nc(Nc1ccc(I)cc1)n3CCOc1ccccc1` [D.2] displayed an EC50 below 1 µM.

The compound `Cc1c(C(N)=O)c(=O)oc2cc3c(cc12)nc(Nc1cccc(I)c1)n3CCc1ccc(Br)cc1` [D.8] showed an EC50 below 1 µM.

`COc1ccc(CCn2c(Nc3cccc(I)c3)nc3cc4c(C)c(C(N)=O)c(=O)oc4cc32)cc1` [D.7]: the EC50 was below 1 µM.

As for `Cc1c(C(N)=O)c(=O)oc2cc3c(cc12)nc(Nc1ccc(OC(F)(F)F)cc1)n3Cc1cccc(I)c1` [D.30], the EC50 is below 1 µM.

As for `Cc1c(C(N)=O)c(=O)oc2cc3c(cc12)nc(Nc1cccc(I)c1)n3CCO` [D.5], the EC50 is above 10 µM.
